Measurements reported in PubChem BioAssay (NCI).
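Test compounds were applied to cells in 96-well plates for 48 hours at 5 doses. GI50 is the concentration that inhibits growth by half. Definition used: TGI = concentration required for complete inhibition of growth.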

Key:
Assay in all cases: growth of human tumour cells (NCI), 48 h; in the data active = GI50 below about 0.43 µM; inactive = the rest
[1] = system: SK-OV-3 ovarian
[2] = system: HL-60(TB) leukemia
[3] = system: SF-295 CNS
[4] = system: SK-MEL-2 melanoma
[5] = system: KM12 colon
[6] = system: HCT-116 colon
[7] = system: CCRF-CEM leukemia
[8] = system: LOX IMVI melanoma
[9] = system: SW-620 colon
[10] = system: OVCAR-4 ovarian
[11] = system: 786-0 renal
[12] = system: SR leukemia
[13] = system: K-562 leukemia
[14] = system: UO-31 renal
[15] = system: OVCAR-3 ovarian
[16] = system: NCI-H522 lung
[17] = system: SNB-75 CNS
[18] = system: NCI-H460 lung
[19] = system: SF-268 CNS
[20] = system: M14 melanoma
[21] = system: MOLT-4 leukemia
[22] = system: SK-MEL-28 melanoma
[23] = system: ACHN renal
[24] = system: DU-145 prostate
[25] = system: RXF 393 renal
[26] = system: TK-10 renal
[27] = system: HCC-2998 colon
[28] = system: MDA-MB-231 breast
[29] = system: IGROV1 ovarian
[30] = system: OVCAR-8 ovarian
[31] = system: MDA-MB-435
[32] = system: NCI-H23 lung
[33] = system: A498 renal
[34] = system: NCI-H226 lung
[35] = system: COLO 205 colon
[36] = system: U251 CNS
[37] = system: MALME-3M melanoma
[38] = system: HS 578T breast
[39] = system: SF-539 CNS
[40] = system: HCT-15 colon
[41] = system: MDA-N
[42] = system: SN12C renal
[43] = system: NCI/ADR-RES ovarian
[44] = system: PC-3 prostate
[45] = system: MCF7 breast
[46] = system: UACC-257 melanoma
[47] = system: T-47D breast
[48] = system: UACC-62 melanoma
[49] = system: HT29 colon
[50] = system: OVCAR-5 ovarian
[51] = system: SNB-19 CNS
[52] = system: HOP-62 NSCLC
[53] = system: RPMI-8226 leukemia
[54] = system: A549 NSCLC
[55] = system: SK-MEL-5 melanoma
[56] = system: HOP-92 NSCLC
[57] = system: CAKI-1 renal
[58] = system: EKVX NSCLC

CCC1=C(C)c2cc3[n-]c(cc4nc(c(C=O)c5[n-]c(cc1n2)c(C)c5CC)C(C)=C4CC)c(C)c3CC.[Ni+2]
inactive: GI50 [1] > 100 µM | GI50 [2] > 100 µM | GI50 [3] > 100 µM | GI50 [4] > 100 µM | GI50 [5] > 100 µM | GI50 [6] > 100 µM | GI50 [7] > 100 µM | GI50 [8] > 100 µM | GI50 [9] > 100 µM | GI50 [10] > 100 µM | GI50 [11] > 100 µM | GI50 [13] > 100 µM | GI50 [14] > 100 µM | GI50 [15] > 100 µM | GI50 [16] > 100 µM | GI50 [17] 93.6 µM | GI50 [18] > 100 µM | GI50 [19] > 100 µM | GI50 [20] > 100 µM | GI50 [21] > 100 µM | GI50 [22] > 100 µM | GI50 [23] > 100 µM | GI50 [24] > 100 µM | GI50 [25] > 100 µM | GI50 [26] > 100 µM | GI50 [27] > 100 µM | GI50 [28] > 100 µM | GI50 [29] > 100 µM | GI50 [30] > 100 µM | GI50 [31] > 100 µM | GI50 [32] > 100 µM | GI50 [33] > 100 µM | GI50 [34] > 100 µM | GI50 [35] > 100 µM | GI50 [36] > 100 µM | GI50 [37] > 100 µM | GI50 [38] > 100 µM | GI50 [39] > 100 µM | GI50 [40] > 100 µM | GI50 [41] > 100 µM | GI50 [42] > 100 µM | GI50 [43] > 100 µM | GI50 [44] > 100 µM | GI50 [45] > 100 µM | GI50 [46] > 100 µM | GI50 [47] > 100 µM | GI50 [48] > 100 µM | GI50 [49] > 100 µM | GI50 [50] > 100 µM | GI50 [51] > 100 µM | GI50 [52] > 100 µM | GI50 [53] > 100 µM
active: GI50 [12] 0.022 µM
> 100 µM: TGI [1] | TGI [2] | TGI [3] | TGI [4] | TGI [5] | TGI [6] | TGI [7] | TGI [8] | TGI [9] | TGI [10] | TGI [11] | TGI [12] | TGI [13] | TGI [14] | TGI [15] | TGI [16] | TGI [17] | TGI [18] | TGI [19] | TGI [20] | TGI [21] | TGI [22] | TGI [23] | TGI [24] | TGI [25] | TGI [26] | TGI [27] | TGI [28] | TGI [29] | TGI [30] | TGI [31] | TGI [32] | TGI [33] | TGI [34] | TGI [35] | TGI [36] | TGI [37] | TGI [38] | TGI [39] | TGI [40] | TGI [41] | TGI [42] | TGI [43] | TGI [44] | TGI [45] | TGI [46] | TGI [47] | TGI [48] | TGI [49] | TGI [50] | TGI [51] | TGI [52] | TGI [53]

Cc1occc(=O)c1O
24.8 µM: TGI [42]
16.4 µM: TGI [28]
28.7 µM: TGI [40]
> 100 µM: TGI [2] | TGI [3] | TGI [4] | TGI [5] | TGI [6] | TGI [7] | TGI [54] | TGI [8] | TGI [9] | TGI [10] | TGI [11] | TGI [12] | TGI [13] | TGI [14] | TGI [15] | TGI [16] | TGI [17] | TGI [18] | TGI [19] | TGI [20] | TGI [55] | TGI [21] | TGI [22] | TGI [23] | TGI [24] | TGI [56] | TGI [26] | TGI [27] | TGI [29] | TGI [30] | TGI [31] | TGI [32] | TGI [34] | TGI [35] | TGI [36] | TGI [57] | TGI [37] | TGI [58] | TGI [38] | TGI [39] | TGI [41] | TGI [43] | TGI [44] | TGI [45] | TGI [46] | TGI [47] | TGI [49] | TGI [50] | TGI [51] | TGI [52] | TGI [53]
